# Laboratory results published in PubChem BioAssay AID504313 (Emory University Molecular Libraries Screening Center, 2011).
# Active and inactive are the calls of the source. No rule for the calls is given here.
# Target: X-box-binding protein 1 (Homo sapiens) (UniProt P17861)
# Assay: XBP1 reporter suppression in cells – counter-screen, dose response (AID 504313);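 also: CHO cells carrying an XBP1 reporter stimulated with tunicamycin; potency is for inhibition of the tunicamycin-induced reporter signal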
# Conditions: XBP1 reporter cell assay, percent of control
row,Structure (SMILES),IC50
1,C=CCN1C(=O)/C(=C/c2ccc(OC(C)=O)c(OCC)c2[N+](=O)[O-])SC1=S,inactive
2,O=C(Nc1cc(N2CCOCC2)ncn1)NC1(C(F)(F)F)Oc2ccc(Cl)cc2O1 (stereo not drawn),> 10 µM (inactive)
3,CC(C)(C)C1C/C(=C/c2ccccn2)C(=O)/C(=C/c2ccccn2)C1 (stereo not drawn),0.55 µM
4,O=C(OCC(F)(F)F)c1cccc(COc2ccc3ccccc3c2)c1,0.98 µM
5,Cc1ccc(/C=C2\SC(=S)N(CCCC(=O)Nc3ccc(O)cc3)C2=O)cc1,< 0.16 µM
6,O=C(OCn1ncc(Br)c(Br)c1=O)c1c(F)cccc1F,3.06 µM
7,CCOC(=O)/C(=C\c1ccc(OC(F)F)cc1)C1=Nn2c(nnc2-c2ccc(Cl)cc2)SC1,4.7 µM
8,Oc1ccc(/C=N/N2CCN(C3c4ccccc4-c4ccccc43)CC2)c(O)c1,> 10 µM (inactive)
9,CCCCc1c(C)nn(-c2nnc3c4ccccc4n(CC)c3n2)c1C,> 10 µM (inactive)
10,COc1ccc(CC2(CO)CCN(CC3=Cc4cc(Cl)ccc4OC3)CC2)cc1,2.67 µM
11,C[C@H]1C[C@@H](C)C(=O)[C@@H]([C@H](O)CC2CC(=O)NC(=O)C2)C1,0.21 µM
12,CCCCCCCCNC(C)C(O)c1ccc(SC(C)C)cc1 (stereo not drawn),4.76 µM
13,Cc1ccc(C)c(OCc2ccc(C(=O)N3N=C(C(F)F)CC3(O)C(F)F)o2)c1 (stereo not drawn),inactive
14,O=[N+]([O-])c1ccc(/C=N/n2c(C3CCCCC3)n[nH]c2=S)cc1,> 10 µM (inactive)
15,CC(C)Cn1c(=O)[nH]c(=O)c2c(C(F)(F)F)cc(-c3ccccc3)nc21,> 10 µM (inactive)
16,O=C(Nc1cccc(-c2nc3ncccc3o2)c1)c1sc2ccccc2c1Cl,> 10 µM (inactive)
17,Cc1cc(Br)c2c(c1)/C(=C/C(=O)c1cccs1)C(=O)N2,> 10 µM (inactive)
18,C/C=C/Cn1c(SCCCc2ccccc2)nc2c1c(=O)[nH]c(=O)n2C,> 10 µM (inactive)
19,CCOc1ccc(N(CC(=O)Nc2cccc(Cl)c2)S(=O)(=O)c2c(C)noc2C)cc1,inactive
20,COc1oc(-c2ccc(Cl)cc2)nc1C(F)(F)F,inactive
21,CN1CC(c2ccccc2)C2(SC(=S)N(Cc3ccco3)C2=O)C12C(=O)Nc1ccccc12 (stereo not drawn),> 10 µM (inactive)
22,Cc1cccc(NC(=S)NC(NC(=O)OCc2ccccc2)C(Cl)(Cl)Cl)c1 (stereo not drawn),> 10 µM (inactive)
23,CCn1cc([N+](=O)[O-])c(C(=O)N2N=C(c3ccc(Cl)c(Cl)c3)CC2c2ccccc2O)n1 (stereo not drawn),> 10 µM (inactive)
24,COc1cc(/C=N/O)cc(Br)c1OCc1cccc(Cl)c1,inactive
25,O=C(COCC(=O)Nc1cccc(C(F)(F)F)c1)Nc1cccc(C(F)(F)F)c1,inactive

row,Structure (SMILES),IC50
1,COc1cc(/C=C/C(=O)OC2CC3CCC2(C)C3(C)C)ccc1O (stereo not drawn),> 10 µM (inactive)
2,COC(=O)c1ccc2c(c1)C(C)(C)C(/C=C/c1ccc(OC)c(OC)c1OC)=[N+]2C,inactive
3,Fc1cccc(-c2nnn3c2nc(Cl)c2ccccc23)c1,inactive
4,C=C(C)COc1ccc(-c2n[nH]c(C)c2-c2ccc(Br)cc2)c(O)c1,inactive
5,O=C(Nc1ccccc1Cl)/C(Cl)=C(\Cl)S(=O)c1ccccc1 (stereo not drawn),2.4 µM
6,CSc1nc2c(cnn2-c2ccc(C)c(C)c2)c(=O)[nH]1,> 10 µM (inactive)
7,Oc1cccc(-c2nc3c4c(ncn3n2)-c2ccccc2CC42CCCC2)c1,> 10 µM (inactive)
8,FC(F)(F)c1ccc(/C=N/NC(=S)NC2CCCCC2)cc1,> 10 µM (inactive)
9,Cc1cc(/C=c2/sc3nc4ccccc4n3c2=O)c(C)n1-c1ccccn1,< 0.16 µM
10,CC(C)(C)OC(=O)N[C@@H](Cc1ccccc1)c1nnc(S(=O)(=O)Cc2ccccc2)o1,inactive
11,Cc1ccc2nc(NC(=O)C3CCN(S(=O)(=O)c4cc([N+](=O)[O-])ccc4Cl)CC3)sc2c1,inactive
12,O=C1/C(=C/c2ccncc2)SC(=S)N1C1CCS(=O)(=O)C1 (stereo not drawn),inactive
13,Cc1ccc(-c2nc(N)sc2-c2ccc(C)cc2)cc1,> 10 µM (inactive)
14,CC(C)Oc1cc(NC(=O)CS(=O)CC(=O)Nc2cccc(C(F)(F)F)c2)c(Cl)cc1Cl (stereo not drawn),inactive
15,CCCOC(=O)c1ccc(Oc2c(-c3ccc(OCC)cc3O)n[nH]c2C)cc1,inactive
16,NC(=O)CC(NC(=O)Cc1cccc2ccccc12)c1ccc(NCc2ccc(F)cc2)c([N+](=O)[O-])c1 (stereo not drawn),> 10 µM (inactive)
17,Cc1ccc2c(C)nc(Nc3nc(CSc4nc5ccccc5[nH]4)cc(=O)[nH]3)nc2c1,inactive
18,CCCCC(CC)Cn1c(N)c(C#N)c2nc3ccccc3nc21 (stereo not drawn),inactive
19,O=S(=O)(Nc1cc(Sc2cccc3cccnc23)c(O)c2ccccc12)c1ccc(F)cc1,4.63 µM
20,CC(C)=CCCC1(C)C=Cc2c(c(C)cc3c2[nH]c2cc(O)ccc23)O1 (stereo not drawn),inactive
21,CC(/C=N/n1c(C2CCCCC2)n[nH]c1=S)=C\c1ccccc1,> 10 µM (inactive)
22,CCOC(=O)c1ccc(NC(=O)c2nc[nH]c2C(=O)N[C@@H](C)C(=O)OC(C)(C)C)cc1,inactive
23,Cn1c(=O)[nH]c(=O)c2c1nc([N+](=O)[O-])n2Cc1ccccc1,inactive
24,CC(C)C[C@H](NC(=O)OC(C)(C)C)C(=O)N/N=C/C1=Cc2ccccc2OC1C (stereo partly drawn),inactive
25,O=[N+]([O-])c1ccc(/C=N/N=C/c2ccc([N+](=O)[O-])o2)o1,2.59 µM

row,Structure (SMILES),IC50
1,Cn1cnc([N+](=O)[O-])c1S(=O)(=O)c1ccc(Cl)cc1,inactive
2,O=C(Nc1ccc(Br)c(C(F)(F)F)c1)c1ccc(C(F)(F)F)cc1,5.44 µM
3,Cc1cccc(Nc2nc(N)c([N+](=O)[O-])c(N3CC(C)CC(C)C3)n2)c1 (stereo not drawn),inactive
4,CC(C)(C)c1ccc(C(=O)NC(=S)NNC(=O)c2cccs2)cc1,> 10 µM (inactive)
5,C/C(=N\NC(=O)c1nn(C)c(C)c1Br)c1ccc(NC(=O)c2ccoc2C)cc1,> 10 µM (inactive)
6,CC(C)CC(NC(=O)c1ccc(Cl)cc1)C(=O)OCC(=O)c1ccc2c(c1)NC(=O)CO2 (stereo not drawn),inactive
7,CCc1ccc(/C=C2\SC(=S)N(CCCC(=O)Nc3ccccn3)C2=O)cc1,< 0.16 µM
8,CC(=O)N(C1=C(Cl)C(=O)c2ccccc2C1=O)C1CCCCC1,inactive
9,O=C1C(Nc2ccc(O)cc2)=C/C(=N/S(=O)(=O)c2cccs2)c2ccccc21,1.21 µM
10,Cc1cc(C)c(S(=O)(=O)ON2C(=O)c3ccccc3C2=O)cc1C,> 10 µM (inactive)
11,CCOC(=O)c1c(C(C)(C)C)oc2ccc(O)cc12,> 10 µM (inactive)
12,Cc1nc(SCC(=O)Nc2cc(C)on2)c2c3c(sc2n1)CCCC3,> 10 µM (inactive)
13,COc1ccc(C(=O)NNC(=O)c2ccccn2)cc1,inactive
14,CCN=C1NN=C(c2cc(C)n(Cc3ccco3)c2C)CS1,< 0.16 µM
15,COC(=O)CN1C(=S)N(Cc2ccccc2)C(=O)C1CC(=O)Nc1ccc(Br)cc1 (stereo not drawn),5.87 µM
16,CC1(c2ccccc2)CC(C)(C)n2c(O)c(C3=NC(=S)NC3=O)c3cccc1c32 (stereo not drawn),> 10 µM (inactive)
17,CCCCn1c(N2CCC(Cc3ccccc3)CC2)nc2c1c(=O)[nH]c(=O)n2C,> 10 µM (inactive)
18,O=C(NNc1ccccc1Br)C(O)(c1cccc(C(F)(F)F)c1)c1cccc(C(F)(F)F)c1,inactive
19,Nc1ccc(N2CCCCCC2)cc1,> 10 µM (inactive)
20,Cc1cc(Cl)ccc1OCC(=O)N[C@@H](Cc1ccccc1)c1nc2ccccc2[nH]1,> 10 µM (inactive)
21,CCCCC(CC)C(=O)Oc1ccc(O)c(C(C)(C)C)c1 (stereo not drawn),inactive
22,CCNc1nc(Oc2c(Cl)cccc2Cl)cc(C(F)(F)F)n1,> 10 µM (inactive)
23,C=CCn1c(CCc2cc(C(C)(C)C)c(O)c(C(C)(C)C)c2)n[nH]c1=S,inactive
24,Cc1ccc(NC(=O)NC(=O)CN2C(=O)NC3(CCCCCCC3)C2=O)c(C)c1,> 10 µM (inactive)
25,Nc1cccc(Nc2nc(OC(C(F)(F)F)C(F)(F)F)nc(OC(C(F)(F)F)C(F)(F)F)n2)c1,2.09 µM

row,Structure (SMILES),IC50
1,COc1ccc(C(=O)c2c(C(F)(F)F)oc3c2C(=O)c2ccccc2C3=O)cc1,inactive
2,Cc1ccc2nc(NC(=O)CSCC(=O)OCC(=O)c3ccc(Br)cc3)sc2c1,3.51 µM
3,Cc1ccc(NN2C(=O)C=C(c3ccc(Cl)cc3)C2=O)cc1,inactive
4,Cc1ccc(NC(=O)c2ccc(Nc3c([N+](=O)[O-])cc([N+](=O)[O-])cc3[N+](=O)[O-])cc2)cc1,inactive
5,CCOc1cc(NC(=O)CCl)c(OCC)cc1NC(=O)CCl,> 10 µM (inactive)
6,NC(=O)c1ccc(C(F)(F)F)n(Cc2c(Cl)cccc2Cl)c1=O,inactive
7,Cc1ccc(-c2nc(-c3ccccn3)no2)cc1,inactive
8,CCCNC(=O)c1nnsc1S(=O)(=O)c1ccc(Cl)cc1,0.87 µM
9,NC(=O)CC(NC(=O)Cc1cccc2ccccc12)c1ccc(NCc2ccccc2)c([N+](=O)[O-])c1 (stereo not drawn),> 10 µM (inactive)
10,CCCN1C=CC(=C2C(=O)c3ccccc3C2=O)C=C1,inactive
11,CC1=CCC[C@@H]2[C@@](C)(CC/C(C)=C/C(=O)O)[C@H](C)CC[C@@]12C,> 10 µM (inactive)
12,Cc1ccc(S(=O)(=O)CC#CCOC(=O)c2ccc([N+](=O)[O-])cc2)cc1,inactive
13,CC(C)NC(=O)c1ccccc1NC(=O)/C=C/c1cccc([N+](=O)[O-])c1,> 10 µM (inactive)
14,CCOc1ccc(-c2cc(CCCC(=O)NCc3ccc(C)cc3)no2)cc1,0.29 µM
15,O=c1[nH]c(NNC(=S)NC2CCCCC2)nc2c1C1(CCCC1)Cc1ccccc1-2,> 10 µM (inactive)
16,CC1CCN(C(=O)/C(=C/c2ccccc2Cl)c2ccccc2)CC1,inactive
17,COC(=O)/C(=C1/Oc2cc(C)oc(=O)c2S1)C(F)(F)F,2.94 µM
18,OCCCNc1nccc(-c2cc(Nc3cccc(Cl)c3)ncn2)n1,0.3 µM
19,C#CC(=O)N(c1ccc(OC)c(OC)c1)C(C(=O)NC1CCCC1)c1cccs1 (stereo not drawn),inactive
20,CCOC(=O)Cc1csc(NC(=O)NC2(C(F)(F)F)Oc3cc(Cl)c(Cl)cc3O2)n1,inactive
21,CC(C)(C)C(=O)c1no[n+]([O-])c1/C(=N/O)C(C)(C)C,> 10 µM (inactive)
22,Cc1cc(/C=N/n2cnnc2)c(C)n1-c1ccc(OCc2ccc(Cl)cc2Cl)cc1,0.35 µM
23,N#Cc1c(N)nc(SCC(=O)C23CC4CC(CC(C4)C2)C3)c(C#N)c1-c1ccc(Cl)cc1,> 10 µM (inactive)
